Laboratory results published in paper PMC9851200, “Multiparameter phenotypic screening for endogenous TFEB and TFE3 translocation identifies novel chemical series modulating lysosome function” (Autophagy, 2022).

Columns and labels:
Assay type in all cases: binding
[1] = target: T1, kinases (KINOMEscan panel) (Homo sapiens, UniProt P51817); settings: kinase PRKX; NEW KINOMEscan
T1 sequence (P51817 1-358): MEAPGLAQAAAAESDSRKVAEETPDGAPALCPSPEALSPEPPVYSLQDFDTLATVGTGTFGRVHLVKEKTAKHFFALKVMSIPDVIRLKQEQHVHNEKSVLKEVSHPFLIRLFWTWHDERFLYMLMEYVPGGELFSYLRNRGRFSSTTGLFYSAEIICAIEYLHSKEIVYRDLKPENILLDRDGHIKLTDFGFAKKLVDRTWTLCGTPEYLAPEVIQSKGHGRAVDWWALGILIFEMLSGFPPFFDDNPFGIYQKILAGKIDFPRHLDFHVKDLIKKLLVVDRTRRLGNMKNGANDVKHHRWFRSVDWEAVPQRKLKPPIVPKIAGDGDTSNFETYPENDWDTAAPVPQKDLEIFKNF

[2] = target: kinases (KINOMEscan panel) (Homo sapiens, UniProt P11802); settings: NEW KINOMEscan; for KINOMEscan CDK4-cyclinD3: kinase CDK4-cyclinD3; for KINOMEscan CDK4: kinase CDK4
[3] = target: kinases (KINOMEscan panel) (Homo sapiens, UniProt Q00526); settings: CDK3; NEW KINOMEscan
[4] = target: kinases (KINOMEscan panel) (Homo sapiens, UniProt P37023); settings: ACVRL1; NEW KINOMEscan
[5] = target: T2, kinases (KINOMEscan panel) (Homo sapiens, UniProt P29323); settings: EPHB2; NEW KINOMEscan
T2 sequence (P29323 19-1055): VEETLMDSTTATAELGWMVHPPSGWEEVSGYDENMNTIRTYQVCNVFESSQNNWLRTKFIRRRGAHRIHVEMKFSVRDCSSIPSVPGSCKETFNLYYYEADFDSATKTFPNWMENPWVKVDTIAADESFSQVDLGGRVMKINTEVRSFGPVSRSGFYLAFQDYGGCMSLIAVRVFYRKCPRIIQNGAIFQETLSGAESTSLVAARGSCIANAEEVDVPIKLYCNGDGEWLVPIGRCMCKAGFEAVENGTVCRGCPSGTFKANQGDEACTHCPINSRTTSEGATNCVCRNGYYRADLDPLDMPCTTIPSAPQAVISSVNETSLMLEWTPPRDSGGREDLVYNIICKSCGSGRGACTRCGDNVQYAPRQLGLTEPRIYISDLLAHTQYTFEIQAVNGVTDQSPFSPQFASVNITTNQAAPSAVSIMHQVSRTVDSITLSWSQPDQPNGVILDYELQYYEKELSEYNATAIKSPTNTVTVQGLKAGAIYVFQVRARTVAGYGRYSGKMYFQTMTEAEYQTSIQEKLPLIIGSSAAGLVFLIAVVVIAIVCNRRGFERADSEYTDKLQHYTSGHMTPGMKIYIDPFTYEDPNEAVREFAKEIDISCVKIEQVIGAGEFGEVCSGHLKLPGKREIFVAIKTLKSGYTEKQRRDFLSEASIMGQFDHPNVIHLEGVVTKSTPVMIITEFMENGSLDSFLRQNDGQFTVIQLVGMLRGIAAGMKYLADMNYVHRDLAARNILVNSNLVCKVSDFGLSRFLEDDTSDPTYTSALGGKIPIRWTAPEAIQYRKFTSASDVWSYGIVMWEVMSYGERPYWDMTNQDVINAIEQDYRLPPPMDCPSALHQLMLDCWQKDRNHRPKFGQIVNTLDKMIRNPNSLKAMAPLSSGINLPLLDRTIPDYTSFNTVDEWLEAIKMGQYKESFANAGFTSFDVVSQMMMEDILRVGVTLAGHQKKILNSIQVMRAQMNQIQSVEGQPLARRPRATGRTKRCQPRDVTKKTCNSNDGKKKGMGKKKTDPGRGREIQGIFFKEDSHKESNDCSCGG

[6] = target: T3, kinases (KINOMEscan panel) (Homo sapiens, UniProt Q96PY6); settings: kinase NEK1; NEW KINOMEscan
T3 sequence (Q96PY6 1-1258): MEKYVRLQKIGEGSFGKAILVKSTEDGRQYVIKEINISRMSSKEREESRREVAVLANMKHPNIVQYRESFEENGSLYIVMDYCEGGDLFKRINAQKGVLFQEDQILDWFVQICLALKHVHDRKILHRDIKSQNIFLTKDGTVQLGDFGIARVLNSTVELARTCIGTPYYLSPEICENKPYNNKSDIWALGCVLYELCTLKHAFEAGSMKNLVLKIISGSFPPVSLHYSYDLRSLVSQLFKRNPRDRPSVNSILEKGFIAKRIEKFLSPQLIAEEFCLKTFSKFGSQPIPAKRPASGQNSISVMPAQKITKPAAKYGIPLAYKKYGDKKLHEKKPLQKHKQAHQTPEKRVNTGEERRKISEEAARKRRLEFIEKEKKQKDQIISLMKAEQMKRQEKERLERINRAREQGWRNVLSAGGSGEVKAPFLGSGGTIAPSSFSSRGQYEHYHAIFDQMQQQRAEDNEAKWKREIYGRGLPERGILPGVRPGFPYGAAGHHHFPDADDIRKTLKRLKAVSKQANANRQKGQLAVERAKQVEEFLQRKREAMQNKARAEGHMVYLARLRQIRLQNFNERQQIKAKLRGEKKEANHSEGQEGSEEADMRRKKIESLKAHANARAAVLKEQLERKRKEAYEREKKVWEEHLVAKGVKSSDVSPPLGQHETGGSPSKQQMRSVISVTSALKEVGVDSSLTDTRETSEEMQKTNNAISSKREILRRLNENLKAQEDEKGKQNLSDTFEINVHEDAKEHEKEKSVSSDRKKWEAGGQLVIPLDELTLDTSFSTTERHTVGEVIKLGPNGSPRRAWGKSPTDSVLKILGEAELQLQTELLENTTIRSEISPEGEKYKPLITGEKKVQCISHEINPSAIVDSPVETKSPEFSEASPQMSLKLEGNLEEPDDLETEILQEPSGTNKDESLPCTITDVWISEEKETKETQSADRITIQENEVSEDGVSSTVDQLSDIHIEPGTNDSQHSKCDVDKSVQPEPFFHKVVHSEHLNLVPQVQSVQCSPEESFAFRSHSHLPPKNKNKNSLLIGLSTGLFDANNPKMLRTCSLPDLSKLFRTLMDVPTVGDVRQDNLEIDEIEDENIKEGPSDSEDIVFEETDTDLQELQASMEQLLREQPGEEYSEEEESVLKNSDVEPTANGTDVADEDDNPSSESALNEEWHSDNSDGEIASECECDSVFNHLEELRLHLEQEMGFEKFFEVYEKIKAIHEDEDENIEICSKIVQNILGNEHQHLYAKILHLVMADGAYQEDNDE

Sequence of kinases (KINOMEscan panel) (Homo sapiens, UniProt P11802) (P11802 whole entry): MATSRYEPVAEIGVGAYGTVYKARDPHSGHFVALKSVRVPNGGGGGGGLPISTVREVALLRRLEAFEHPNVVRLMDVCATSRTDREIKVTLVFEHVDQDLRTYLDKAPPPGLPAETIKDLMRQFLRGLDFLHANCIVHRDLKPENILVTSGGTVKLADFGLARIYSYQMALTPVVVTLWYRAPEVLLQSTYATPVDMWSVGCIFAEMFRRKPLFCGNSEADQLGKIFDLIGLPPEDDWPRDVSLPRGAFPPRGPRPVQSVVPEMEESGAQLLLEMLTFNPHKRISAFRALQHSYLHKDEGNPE
Sequence of kinases (KINOMEscan panel) (Homo sapiens, UniProt Q00526) (Q00526 whole entry): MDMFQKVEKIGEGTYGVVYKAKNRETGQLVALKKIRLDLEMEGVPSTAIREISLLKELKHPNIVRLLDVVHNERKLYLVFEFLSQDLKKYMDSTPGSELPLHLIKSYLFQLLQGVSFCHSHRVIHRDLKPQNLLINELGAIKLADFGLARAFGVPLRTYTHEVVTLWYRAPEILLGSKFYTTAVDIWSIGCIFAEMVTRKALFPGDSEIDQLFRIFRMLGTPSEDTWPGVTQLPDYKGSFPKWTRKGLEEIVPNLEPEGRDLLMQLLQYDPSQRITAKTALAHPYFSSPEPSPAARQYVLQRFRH
Sequence of kinases (KINOMEscan panel) (Homo sapiens, UniProt P37023) (P37023 22-503): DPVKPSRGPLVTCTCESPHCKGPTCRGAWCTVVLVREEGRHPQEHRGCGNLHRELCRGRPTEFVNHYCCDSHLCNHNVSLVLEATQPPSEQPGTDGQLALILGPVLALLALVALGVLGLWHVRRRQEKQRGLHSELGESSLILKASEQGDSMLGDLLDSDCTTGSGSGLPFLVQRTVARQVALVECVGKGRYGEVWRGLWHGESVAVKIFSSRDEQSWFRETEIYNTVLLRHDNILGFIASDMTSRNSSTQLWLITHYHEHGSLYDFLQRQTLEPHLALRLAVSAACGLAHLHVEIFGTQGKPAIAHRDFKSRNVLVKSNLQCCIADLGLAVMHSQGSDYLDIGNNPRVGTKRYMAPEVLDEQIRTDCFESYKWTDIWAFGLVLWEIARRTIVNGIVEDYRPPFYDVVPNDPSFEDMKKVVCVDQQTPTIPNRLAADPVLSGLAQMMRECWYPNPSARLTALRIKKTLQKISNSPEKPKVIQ

Row | Structure (SMILES) | KINOMEscan PRKX [1] | KINOMEscan CDK4-cyclinD1 (???) CCND1 [2] | KINOMEscan CDK4-cyclinD3 [2] | KINOMEscan CDK4 [2] | KINOMEscan CDK3 [3] | KINOMEscan ACVRL1 [4] | KINOMEscan EPHB2 [5] | KINOMEscan NEK1 [6]
1 | Cc1cccc(-c2nc(N(C)c3ccc4ncsc4c3)c3ccccc3n2)n1 [NK-161] | 7 | 18 | 0 | 0 | 0 | 9 | 15 | 0
2 | Cc1cccc(-c2nc(Nc3ccc4nn(C)cc4c3)c3ccccc3n2)n1 [NK167] | 0 | 10 | 0 | 0 | 0 | 4 | 12 | 0
